The results in this text go back to patent publication US11655239B2 (SHANGHAI INSTITUTE OF MATERIAL MEDICA, CHINESE ACADEMY OF …, priority 2019, dated 2023).

The structures appear in SMILES notation. A value given as a limit tells only on which side of the number the result lay.

For one data set, the system named is DDR2. Nature of the data set: Phosphorylation level of DDR2 (Western Blot). Format: cell-based, human. The conditions noted are these: MRC-5, TGF-β1 treatment. Here is the method:
1) Preparation of cell protein samples: the cell culture liquid was discarded, wash was performed once with PBS, and samples were collected by adding 1×SDS-Loading. after the samples were collected, they were placed in a metal bath at 100° C., and the samples were boiled for 10 minutes, and then the samples were stored at 4° C. for waiting for subsequent test.
2) Gel preparation and sample loading: according to the molecular weight of the detected protein, different concentrations of separation gel were selected. after filling the 1× electrophoresis buffer, an equal volume of protein sample 4 μl and protein marker were added on the far left to right in sequence.
When the sample was in the concentrated gel, the voltage was set to 80 V; when the sample was electrophoresed to the separation gel, the voltage was increased to 120 V until the bromophenol blue was electrophoresed to reach the bottom of the gel, and the electrophoresis ended. […]
8) Secondary antibodies: the film with the primary antibodies was rewarmed and incubated for about half an hour, and then the primary antibodies were recovered and the film was washed quickly with TBST solution 3 times, 10 minutes each time. […] The dilution ratio of the secondary antibody dedicated for DDR2 was 1:5000; The dilution ratio for the rest of the secondary antibodies were 1:8000, ready for use. […]
(Immunoblotting shows a protein as a band on a membrane.)

For the next data set, the target named is Src (Homo sapiens (Human), UniProt P12931). Nature of the data set: Enzyme selectivity test (ELISA), Src. Format: biochemical. Here is the method: (§1) 1) Enzyme reaction substrate Poly(Glu, Tyr) 4:1 was diluted to 20 μg/mL with potassium-free PBS (10 mM sodium phosphate buffer, 150 mM NaCl, pH 7.2-7.4), and the microtiter plate was coated with 125 μL/well and placed at 37° C. for 12-16 hours of reaction. The liquid in the well was discard. The plate was washed three times with T-PBS (potassium-free PBS containing 0.1% Tween-20, 200 μL/well), 5 minutes each time. The ELISA plate was dried in an oven at 37° C. for 1 to 2 hours.
Sequence of Src (P12931 whole entry, looked up, species assumed, the tested form may be a part): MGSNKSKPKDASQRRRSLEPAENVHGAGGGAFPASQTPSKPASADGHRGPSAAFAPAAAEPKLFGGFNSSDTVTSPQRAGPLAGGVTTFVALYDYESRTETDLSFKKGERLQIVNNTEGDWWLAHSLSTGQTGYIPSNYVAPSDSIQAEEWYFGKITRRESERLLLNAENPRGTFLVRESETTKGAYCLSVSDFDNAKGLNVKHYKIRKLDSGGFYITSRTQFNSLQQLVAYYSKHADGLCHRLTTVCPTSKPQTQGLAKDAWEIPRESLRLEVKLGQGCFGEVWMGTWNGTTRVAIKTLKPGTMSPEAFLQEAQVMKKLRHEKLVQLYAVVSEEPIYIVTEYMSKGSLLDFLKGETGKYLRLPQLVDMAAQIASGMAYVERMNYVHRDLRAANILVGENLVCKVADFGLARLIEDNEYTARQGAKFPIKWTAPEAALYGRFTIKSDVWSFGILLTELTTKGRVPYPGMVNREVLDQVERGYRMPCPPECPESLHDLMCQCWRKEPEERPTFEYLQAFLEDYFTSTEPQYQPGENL
(§2) 2) Reaction buffer (50 mM HEPES pH 7.4, 50 mM MgCl2, 0.5 mM MnCl2, 0.2 mM Na3VO4, 1 mM DTT) diluted ATP solution (49 μL) was added to each well, 1 μL of the compound to be tested was added to each well, and then 50 μL of DDR2 kinase domain recombinant protein diluted in the reaction buffer was added to start the reaction. Two control wells without ATP were set in each experiment. The plate placed on a shaker (100 rpm) at 37° C. for 1 hour of reaction. The liquid in the well was discarded and the plate was washed three times with T-PBS.
(§3) 3) Antibody PY99 dilution solution (the antibody was diluted 1:500 with T-PBS containing BSA 5 mg/mL) was added at 100 μL/well, and shaken on a shaker at 37° C. for 0.5 hour of reaction. The liquid in the well was discarded and the plate was washed three times with T-PBS.
(§4) 4) Horseradish peroxidase labeled goat anti-murine secondary antibody dilution solution (the antibody is diluted 1:2000 with T-PBS containing BSA 5 mg/ml) was added at 100 μL/well, and shaken on a shaker at 37° C. for 0.5 hour of reaction. The liquid in the well was discarded and the plate was washed three times with T-PBS.
(§5) 5) 2 mg/ml of OPD color developing solution [diluted with 0.1 M citric acid-sodium citrate buffer (pH=5.4) containing 0.03% H2O2] was added at 100 μL/well and reacted for 1 to 10 minutes at 25° C. in the dark.
(§6) 6) 2M H2SO4 was added at 50 μL/well to stop the reaction, and a tunable wavelength microplate reader VERSAmax was used for reading at a wavelength of 490 nm.
(§7) The IC50 value was obtained by four-parameter regression using the software that came with the microplate reader. […]
On the technique in general: In an ELISA, binding on a coated surface is turned into a signal by an enzyme label.

Data set [1] deals with lung fibroblast cell line MRC-5. Put plainly: Cytotoxic activity test (MTS), MRC-5. The conditions noted are these: 10 μM. Format: cell-based, human. As to the method: Experimental objective: The cytotoxic activity of compound S15 on bronchial epithelial cell line Beas-2B and lung fibroblast cell line MRC-5 was tested.
1) The human bronchial epithelial cell line Beas-2B and the human embryonic lung fibroblast cell line MRC-5 were collected, and inoculated at a certain density (about 5000-10000 cells) on a 96-well plate (the edge wells were filled with sterile water or PBS). A control was set on each plate (100 μL of culture medium was added);
2) The plate was incubated overnight at 37° C., 5% CO2. The plate was turned upside down and observed under the microscope.
3) The solutions of different concentrations of the compounds to be tested were added to each well, and a control well (culture medium and MTS solution with cells but no drug) and a blank well (without cells, medium and MTS solution) were set, 3 to 5 repetition wells were set for each group. Incubation was performed at 37° C. for 48-72 hours.
4) 10 μL/well of MTS/PMS (20:1, Promega Corp) solution was added to each well containing 100 μL of culture medium, and then the plate was gently shaken. The plate was incubated at 37° C. for 2 to 4 hours.
5) M5 microplate reader (Molecular Device, USA) was used to measure the absorbance of the solution at 490 nm. […]

A further data set concerns the target C-Kit (Homo sapiens (Human), UniProt P10721). Nature of the data set: Enzyme selectivity test (ELISA), C-Kit. Format: biochemical. Here is the method:
as §1, §2, §3, §4, §5, §6, §7

The next data set has as its target Abl (Homo sapiens (Human), UniProt P00519). Put plainly: Enzyme selectivity test (ELISA), Abl. Format: biochemical. Here is the method:
as §1, §2, §3, §4, §5, §6, §7

A further data set has as its target AXL (Homo sapiens (Human), UniProt P30530). Nature of the data set: Enzyme selectivity test (ELISA), AXL. The class given is biochemical. As to the method:
as §1, §2, §3, §4, §5, §6, §7

Sequence of AXL (P30530 26-894, species assumed): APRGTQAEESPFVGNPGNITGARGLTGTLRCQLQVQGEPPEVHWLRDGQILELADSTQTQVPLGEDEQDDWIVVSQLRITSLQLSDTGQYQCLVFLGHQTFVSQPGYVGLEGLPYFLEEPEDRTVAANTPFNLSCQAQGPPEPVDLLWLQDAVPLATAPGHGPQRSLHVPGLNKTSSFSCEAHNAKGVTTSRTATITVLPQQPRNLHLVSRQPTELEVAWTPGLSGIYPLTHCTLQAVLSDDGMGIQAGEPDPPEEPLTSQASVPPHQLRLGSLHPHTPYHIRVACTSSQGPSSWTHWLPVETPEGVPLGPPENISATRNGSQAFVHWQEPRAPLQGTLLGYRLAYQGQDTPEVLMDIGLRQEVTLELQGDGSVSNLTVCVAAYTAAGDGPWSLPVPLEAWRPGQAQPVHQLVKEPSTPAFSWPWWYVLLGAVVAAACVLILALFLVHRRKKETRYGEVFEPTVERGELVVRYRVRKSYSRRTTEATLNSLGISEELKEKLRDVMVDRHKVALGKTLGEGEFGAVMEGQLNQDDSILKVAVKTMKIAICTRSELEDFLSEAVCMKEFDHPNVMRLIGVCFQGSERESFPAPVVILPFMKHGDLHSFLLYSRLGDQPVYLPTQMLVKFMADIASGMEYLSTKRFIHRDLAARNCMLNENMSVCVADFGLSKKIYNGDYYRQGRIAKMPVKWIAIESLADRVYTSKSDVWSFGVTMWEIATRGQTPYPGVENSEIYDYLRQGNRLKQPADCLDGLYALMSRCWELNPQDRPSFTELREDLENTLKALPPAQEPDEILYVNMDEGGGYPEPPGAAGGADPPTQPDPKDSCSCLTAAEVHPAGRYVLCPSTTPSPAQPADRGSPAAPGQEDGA
Sequence of C-Kit (P10721 26-976): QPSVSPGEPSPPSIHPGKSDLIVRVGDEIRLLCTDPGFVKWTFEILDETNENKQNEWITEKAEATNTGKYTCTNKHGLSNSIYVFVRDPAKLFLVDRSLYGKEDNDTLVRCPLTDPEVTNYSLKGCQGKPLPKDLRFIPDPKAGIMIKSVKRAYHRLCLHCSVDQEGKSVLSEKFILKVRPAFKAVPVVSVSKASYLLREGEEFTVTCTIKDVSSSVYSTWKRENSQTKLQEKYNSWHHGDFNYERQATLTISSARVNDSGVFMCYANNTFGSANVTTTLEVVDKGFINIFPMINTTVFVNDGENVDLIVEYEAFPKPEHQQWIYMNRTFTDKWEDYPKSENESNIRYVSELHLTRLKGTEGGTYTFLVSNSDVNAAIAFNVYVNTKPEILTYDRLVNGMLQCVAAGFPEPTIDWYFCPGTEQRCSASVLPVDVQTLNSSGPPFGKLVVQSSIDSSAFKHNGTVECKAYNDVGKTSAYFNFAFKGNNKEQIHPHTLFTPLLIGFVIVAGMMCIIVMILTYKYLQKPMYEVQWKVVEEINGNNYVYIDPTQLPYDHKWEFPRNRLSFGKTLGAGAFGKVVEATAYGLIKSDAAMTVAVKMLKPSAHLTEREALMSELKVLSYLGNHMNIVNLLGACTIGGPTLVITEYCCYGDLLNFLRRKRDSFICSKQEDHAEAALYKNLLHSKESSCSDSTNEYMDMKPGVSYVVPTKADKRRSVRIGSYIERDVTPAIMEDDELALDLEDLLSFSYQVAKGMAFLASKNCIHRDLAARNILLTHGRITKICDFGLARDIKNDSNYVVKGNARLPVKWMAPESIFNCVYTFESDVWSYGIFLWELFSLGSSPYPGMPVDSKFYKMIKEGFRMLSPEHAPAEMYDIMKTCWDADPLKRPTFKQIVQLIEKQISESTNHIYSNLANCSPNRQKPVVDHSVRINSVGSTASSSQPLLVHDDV
Sequence of Abl (P00519 whole entry, species assumed): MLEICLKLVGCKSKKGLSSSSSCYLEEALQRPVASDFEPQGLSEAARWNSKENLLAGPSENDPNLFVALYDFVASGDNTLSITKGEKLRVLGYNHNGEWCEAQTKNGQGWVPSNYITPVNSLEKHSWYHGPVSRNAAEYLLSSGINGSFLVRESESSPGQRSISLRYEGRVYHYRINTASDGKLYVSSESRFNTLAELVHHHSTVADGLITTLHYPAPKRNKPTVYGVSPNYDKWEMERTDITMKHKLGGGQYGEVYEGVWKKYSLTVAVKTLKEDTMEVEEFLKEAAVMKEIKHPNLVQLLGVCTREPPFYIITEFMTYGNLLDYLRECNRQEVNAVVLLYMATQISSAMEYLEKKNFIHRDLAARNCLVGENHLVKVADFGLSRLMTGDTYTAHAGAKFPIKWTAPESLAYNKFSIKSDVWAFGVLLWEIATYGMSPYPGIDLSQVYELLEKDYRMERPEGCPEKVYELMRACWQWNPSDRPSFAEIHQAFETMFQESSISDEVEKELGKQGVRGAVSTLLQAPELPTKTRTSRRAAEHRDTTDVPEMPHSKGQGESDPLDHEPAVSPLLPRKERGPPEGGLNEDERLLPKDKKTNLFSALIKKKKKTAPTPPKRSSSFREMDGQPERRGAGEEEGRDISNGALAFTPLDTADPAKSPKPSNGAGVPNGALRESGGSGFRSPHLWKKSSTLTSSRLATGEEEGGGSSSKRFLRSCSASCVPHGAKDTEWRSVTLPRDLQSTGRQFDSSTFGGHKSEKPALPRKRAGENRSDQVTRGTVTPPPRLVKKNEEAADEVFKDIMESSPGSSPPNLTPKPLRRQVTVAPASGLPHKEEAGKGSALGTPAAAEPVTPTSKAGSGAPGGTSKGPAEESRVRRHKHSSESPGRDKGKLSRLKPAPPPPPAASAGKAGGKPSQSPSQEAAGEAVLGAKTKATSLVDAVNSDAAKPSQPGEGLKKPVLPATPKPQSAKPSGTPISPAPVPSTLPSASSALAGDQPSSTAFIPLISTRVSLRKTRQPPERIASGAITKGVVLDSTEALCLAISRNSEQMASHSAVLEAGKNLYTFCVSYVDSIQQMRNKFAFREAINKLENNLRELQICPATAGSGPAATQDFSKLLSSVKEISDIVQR

Consider `O=C(Nc1cccc(C(F)(F)F)c1)c1ccc(C2CC2)c(-c2ccc3nc(Nc4cnn(C5CC5)c4)ncc3c2)c1` [Compound S15, 4-cyclopropyl-3-(2-((1-cyclopropyl-1H-pyrazol-4-yl)amino)quinazolin-6-yl)-N-(3-(trifluoromethyl)phenyl)benzamide], for which, in the data set on DDR2, the “phosphorylation level of DDR2” value is given as “effectively inhibit the phosphorylation level of DDR2”. The concentration for half-maximal inhibition (IC50) against Src is above 100 nM; at C-Kit it was above 1000 nM; on Abl, below 10 nM; at AXL it was above 1000 nM. In data set [1], the “cytotoxic activity on MRC-5” value is “almost no toxicity”.

One may read the IC50 as the midpoint of a concentration-inhibition curve. Read a low IC50 as higher potency.
